Assay results: patent publication US10745382B2 (BRISTOL-MYERS SQUIBB COMPANY, priority 2015, dated 2020)

Target: T1, PD-1/PD-L1 (Homo sapiens, UniProt Q9NZQ7)
T1 construct: made in house; host or cells: HEK293T
Assay: PD-1/PD-L1 Homogenous Time-Resolved Fluorescence (HTRF) binding assay
Conditions: PD-L1-His 10 nM, PD-1-Ig 20 nM; value given as range class; read-out: Range or IC50
Summary of the method: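 Binding was measured by HTRF in dPBS with 0.1% BSA and 0.05% Tween-20. Detection used europium cryptate anti-Ig (1 nM final) and APC anti-His (20 nM final) added over the binding reaction.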

T1 sequence (Q9NZQ7 with tags, fused parts or gaps): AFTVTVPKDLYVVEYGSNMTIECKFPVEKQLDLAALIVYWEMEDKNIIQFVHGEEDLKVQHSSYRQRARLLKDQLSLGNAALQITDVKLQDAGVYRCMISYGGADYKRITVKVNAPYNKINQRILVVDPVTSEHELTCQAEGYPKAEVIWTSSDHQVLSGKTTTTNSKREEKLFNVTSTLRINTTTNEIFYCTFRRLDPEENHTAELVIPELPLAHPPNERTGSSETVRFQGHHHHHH

Row | Structure (SMILES) | IC50 [µM]
1 | Cc1ccc(COc2cc(OCc3cccc(-c4cccc(OCCCN5CC[C@@H](O)C5)c4C)c3C)c(Cl)cc2CNC(CO)(CO)CO)cc1C [Example 4507, (R)-2-((5-chloro-2-((3,4-dimethylbenzyl)oxy)-4-((3′-(3-(3-hydroxypyrrolidin-1-yl)propoxy)-2,2′-dimethyl-[1,1′-biphenyl]-3-yl)methoxy)benzyl)amino)-2-(hydroxymethyl)propane-1,3-diol] | 0.00021 to 0.01
2 | Cc1ccc(COc2cc(OCc3cccc(-c4cccc(OCCCN5CC[C@@H](O)C5)c4C)c3C)c(Cl)cc2CN2CCCC[C@H]2C(=O)O)cc1C [Example 4508, (S)-1-(5-chloro-2-((3,4-dimethylbenzyl)oxy)-4-((3′-(3-((R)-3-hydroxypyrrolidin-1-yl)propoxy)-2,2′-dimethyl-[1,1′-biphenyl]-3-yl)methoxy)benzyl)piperidine-2-carboxylic Acid] | 0.00021 to 0.01
3 | Cc1c(COc2cc(OCc3ccc(F)c(F)c3)c(CNC(CO)CO)cc2Cl)cccc1-c1cccc(OCCCN2CC[C@@H](O)C2)c1C [Example 4509, (R)-2-((5-chloro-2-((3,4-difluorobenzyl)oxy)-4-((3′-(3-(3-hydroxypyrrolidin-1-yl)propoxy)-2,2′-dimethyl-[1,1′-biphenyl]-3-yl)methoxy)benzyl)amino)propane-1,3-diol] | 0.00021 to 0.01
4 | Cc1c(COc2cc(OCc3ccc(F)c(F)c3)c(CNC(C)(CO)CO)cc2Cl)cccc1-c1cccc(OCCCN2CC[C@@H](O)C2)c1C [Example 4510, (R)-2-((5-chloro-2-((3,4-difluorobenzyl)oxy)-4-((3′-(3-(3-hydroxypyrrolidin-1-yl)propoxy)-2,2′-dimethyl-[1,1′-biphenyl]-3-yl)methoxy)benzyl)amino)-2-methylpropane-1,3-diol] | 0.01 to 0.1
5 | Cc1c(COc2cc(OCc3ccc(F)c(F)c3)c(CNC(CO)(CO)CO)cc2Cl)cccc1-c1cccc(OCCCN2CC[C@@H](O)C2)c1C [Example 4511, (R)-2-((5-chloro-2-((3,4-difluorobenzyl)oxy)-4-((3′-(3-(3-hydroxypyrrolidin-1-yl)propoxy)-2,2′-dimethyl-[1,1′-biphenyl]-3-yl)methoxy)benzyl)amino)-2-(hydroxymethyl)propane-1,3-diol] | 0.00021 to 0.01
6 | Cc1c(COc2cc(OCc3ccc(F)c(F)c3)c(CN3CCCC[C@H]3C(=O)O)cc2Cl)cccc1-c1cccc(OCCCN2CC[C@@H](O)C2)c1C [Example 4512, (S)-1-(5-chloro-2-((3,4-difluorobenzyl)oxy)-4-((3′-(3-((R)-3-hydroxypyrrolidin-1-yl)propoxy)-2,2′-dimethyl-[1,1′-biphenyl]-3-yl)methoxy)benzyl)piperidine-2-carboxylic Acid] | 0.00021 to 0.01
7 | Cc1cccc(C)c1COc1cc(OCc2cccc(-c3cccc(OCCCN4CC[C@@H](O)C4)c3C)c2C)c(Cl)cc1CNC(C)(CO)CO [Example 4514, (R)-2-((5-chloro-2-((2,6-dimethylbenzyl)oxy)-4-((3′-(3-(3-hydroxypyrrolidin-1-yl)propoxy)-2,2′-dimethyl-[1,1′-biphenyl]-3-yl)methoxy)benzyl)amino)-2-methylpropane-1,3-diol] | 0.1 to 2
8 | Cc1cccc(C)c1COc1cc(OCc2cccc(-c3cccc(OCCCN4CC[C@@H](O)C4)c3C)c2C)c(Cl)cc1CN1CCCC[C@H]1C(=O)O [Example 4516, (S)-1-(5-chloro-2-((2,6-dimethylbenzyl)oxy)-4-((3′-(3-((R)-3-hydroxypyrrolidin-1-yl)propoxy)-2,2′-dimethyl-[1,1′-biphenyl]-3-yl)methoxy)benzyl)piperidine-2-carboxylic Acid] | 2.01 to 10
9 | COc1cc(/C=C/c2cccc(-c3cccc(OCCCN4CC[C@@H](O)C4)c3C)c2C)c(Cl)cc1CN1CCCC[C@H]1C(=O)O [Example 4517, (S)-1-(5-chloro-4-((E)-2-(3′-(3-((R)-3-hydroxypyrrolidin-1-yl)propoxy)-2,2′-dimethyl-[1,1′-biphenyl]-3-yl)vinyl)-2-methoxybenzyl)piperidine-2-carboxylic Acid] | 0.00021 to 0.01
